From US20240074473A1, “METHOD FOR INDUCING HYPERTROPHIC MUSCLE FIBERS FOR INDUSTRIAL MEAT PRODUCTION” (Yeda Research and Development Co. Ltd., priority 2021, published 2024)

Legend:
Type in all cases: cell-based
[1] = system: primary mouse myoblasts; assay: Fusion index of primary mouse myoblasts (MyHC immunostaining); conditions: first passage mouse primary myoblasts, 24 hours; 1 μM ERKi in growth medium vs. DM
Procedure: Isolation of and treatment of primary myoblasts. Primary mouse myoblasts were isolated from gastrocnemius muscle using trypsin-tissue dissociation. Briefly, muscle tissues were incubated in Trypsin B (0.25%, Biological Industries) and subjected to mechanical dissociation with a serological pipet. Supernatants were strained and centrifuged. Pellets were grown resuspended in BioAmf-2 media (Biological Industries, Israel) and plated on 10% Matrigel (BD Biosciences)-coated plates at 37° and 5% CO2. For all in vitro experiments, proliferation medium was Bio-Amf2 (Biological Industries, Israel) and Differentiation medium (DM) was DMEM 2% Horse Serum (HS) with 1% Pen/Strep. For fusion assays, cells were trypsinized with Trypsin C (0.05%, Biological Industries) and subjected to two rounds of preplating on uncoated plates to reduce the number of fibroblasts. Cells were plated at a density of 8×10^3 per well in 10% Matrigel-coated 96-well plates in proliferation medium for 24 hours. The following day, proliferation media was replaced either with proliferation media or with DM containing DMSO (Ctrl) or 1 μM ERK1/2 inhibitor (ERKi; SCH772984, Cayman Chemicals), […] RXR antagonist (RXRi; HX-531, Cayman Chemicals), […] Ryanodine receptor antagonist (RYRi; Dantrolene, Cayman Chemicals), 5 μM CaMKII inhibitor (CaMKIIi; KN93, Cayman Chemicals), or with DM for controls.
(§1) Immunofluorescence staining. First passage primary myoblasts isolated from various strains (indicated in figure legends) were plated in 96-well plates or chamber slides and treated as previously described. The cells were fixed with ice cold 4% PFA in PBS for 10 minutes, permeabilized with 0.5% Triton X-100 in PBS for 6 minutes, and blocked in PBS with 0.025% tween, 10% normal horse serum and 10% normal goat serum for 1 hour at room temperature. Primary antibody incubation was done in blocking buffer overnight at 4 degrees, with the following antibodies: Myosin Heavy Chain (MyHC, MF20, DSHB hybridoma supernatant 1:10, or MY-32 ABCAM ab51263 1:400), Myogenin (MYOG sc-13137 SCBT 1:200), pHistone 3 (PH3, ab47297 ABCAM 1:1000), Ki-67 (Cell Marque #275R), RYR (ab2868 ABCAM 1:100), and pCaMKII (SIGMA SAB4504356 1:100). Cells were washed 3 times in PBS with 0.025% tween and then incubated with appropriate secondary antibodies in PBS 1 hour. Where indicated, nuclei were either labeled with DAPI (SIGMA D9542, 5 ug/ml) or Hoechst 33342 (Thermo scientific #62249, 1:2000). Fixed cells at 24 hours post treatment with indicated inhibitors were imaged using the Nikon Eclipse Ti2 microscope (further described in microscopy section). All analysis was performed on at least 1000 nuclei. […]
Quantification of fusion index. Following immunostaining and imaging, a fusion index was quantified by manually identifying nuclei found in a MyHC positive cell with at least 2 nuclei. Then the values were expressed as a percentage of the total nuclei per field. Briefly, in Figures where fusion index is stratified into subgroups of fiber size, the nuclei number in MyHC positive cell was manually quantified in a given field and stratified into groups of mononucleated, bi-nucleated myotubes, myotubes with 3-10 nuclei and myotubes with greater than 10 nuclei. […] Fields were analyzed hourly, and nuclei per cell was quantified and stratified into mononucleated, bi-nucleated, tri-nucleated and cells with ≥4 nuclei.

[2] = system: primary mouse myoblasts; assay: Proliferation markers KI-67 and pH3 staining in primary mouse myoblasts; conditions: 1 μM ERKi, 24 hours
Procedure: as §1

[3] = system: primary chicken myoblasts; assay: Fusion index of primary chicken myoblasts (MyHC immunostaining); conditions: for Fusion: 48 hours post treatment
Procedure: (§2) Chicken primary derived myoblasts were used as a model to evaluate the efficiency of SCH772984 as the ERKi, compared to conventional differentiation medium (DM) for the purpose of producing muscle (meat) in tissue culture conditions. Chicken myoblasts were isolated from chicken embryos and expanded in proliferation medium. When sufficient cell numbers were acquired, cells were seeded on tissue culture plates and allowed to adhere for 24 hours. Then medium was changed to either PM supplemented with ERKi or DM. At 24-hours post treatment, the cells that received ERKi were replenished with fresh PM (without the addition of more ERKi), and DM treated cells were replenished with fresh DM. Media was replaced daily over a period of 72 hours.
Evaluation of muscle fiber formation was achieved by fixing the cells and staining for expression of Myosin Heavy Chain (FIG. 9A). […] Yet, treatment with conventional DM only began to form fibers beginning at 72-hours post treatment. A fusion index was quantified at 72 hours post treatment (FIG. 9B), in which the percentage of total nuclei present in a myotube (MyHC positive cell with 2 or more nuclei).
Primary chicken myoblast isolation and treatment: chicken myoblasts were isolated from broiler chicken embryos at day 18 from breast and leg muscles by using Trypsin B. Following tissue dissociation, the cell suspension was grown for 3-4 days on 10% Matrigel coated plates. At the first passage, the cells were lifted and pre-plated twice for 30 minutes to enrich for myoblasts and reduce the number of fibroblasts. Then cells were seeded at 8,000/well of optical-96 well plates in proliferation medium. 24 hours after plating, media was aspirated and replaced with the indicated treatment conditions in proliferation media or differentiation media (as indicated). After 24 hours with treatment, the media was aspirated and all wells were replenished with fresh proliferation media or differentiation media without any treatment. This was repeated daily. Cells were fixed at 48 hours after treatment. Compounds were purchased from Cayman Chemicals.
Immunofluorescent staining: Cells were fixed with ice cold 4% PFA in PBS for 10 minutes, permeabilized with 0.5% Triton X-100 in PBS for 6 minutes, and blocked in PBS with 0.025% tween, 10% normal horse serum and 10% normal goat serum for 1 hour at room temperature. Primary antibody incubation was done in blocking buffer overnight at 4 degrees, with the following antibodies: Myosin Heavy Chain (MyHC, MF20, DSHB hybridoma supernatant 1:10, alpha-actinin (SIGMA A7811). Cells were washed 3 times in PBS with 0.025% tween and then incubated with appropriate secondary antibodies in PBS 1 hour. Nuclei were labeled with DAPI (SIGMA D9542, 5 ug/ml). All fusion indexes and imaging analysis were performed on at least 1000 per technical repeat.

[4] = system: chicken myoblasts; assay: Immunofluorescence of sarcomeric proteins in chicken myotubes; conditions: 48 hours post treatment
Procedure: as §2

Structure (SMILES): O=C(Nc1ccc2[nH]nc(-c3ccncc3)c2c1)[C@@H]1CCN(CC(=O)N2CCN(c3ccc(-c4ncccn4)cc3)CC2)C1 [SCH772984]
- Fusion index (fraction of nuclei in differentiated MyHC+ cells) [1]: 90.5%
- Cell cycle (KI-67 and phosphorylated Histone 3 staining) [2]: undergo cell-cycle arrest
- Muscle fibers begin to form earlier than with DM ([3]; chicken myoblasts): 48 h
- Increase in fusion index compared to DM ([3]; chicken myoblasts, 72 hours post treatment): ~4 fold
- Fusion index (percentage of total nuclei in MyHC positive cell with 2 or more nuclei) ([3]; chicken myoblasts, 72 hours post treatment, ERKi in PM vs DM): 62%
- Time at which myotubes/fibers begin to form ([3]; chicken myoblasts, post treatment): ≤ 24 h
- Fusion ([3]; primary chicken myoblasts, Differentiation media, 1 uM): 46%
- Fusion ([3]; primary chicken myoblasts, Differentiation media, 10 uM): 61%
- Fusion ([3]; primary chicken myoblasts, Proliferation media, 1 uM): 59%
- Fusion ([3]; primary chicken myoblasts, Proliferation media, 10 uM): 69%
- Fusion index ([3]; primary chicken myoblasts, proliferation medium, ERKi treatment alone (SCH772984 1 uM), 48 hours): 62%
- Sarcomeric structure (striation of actinin, troponin, phalloidin signals) [4]: sarcomeric structure is already apparent
